From paper PMC10307063, “Bioprospection of Selected Plant Secondary Metabolites as Modulators of the Proteolytic Activity of Plasmodium falciparum Plasmepsin V” (BioMed Research International, 2023)
Where a SMILES comes first, the peptide text is derived from it. [ ]: non-standard residue; d: D form. The star is where a group is joined. Sta = CC(C)C[C@H](N)[C@@H](O)CC(=O)O; Isovaleryl = CC(C)CC(=O)*

How the values were obtained:
[1] = target: T1, Plasmodium falciparum plasmepsin V (PfPMV) (Plasmodium falciparum, UniProt Q8I6Z5); assay: casein proteolysis assay with recombinant enzyme (A280), Lineweaver-Burk kinetics; format: biochemical
T1 construct: gene PMV; Trx-PfPMVp37
T1 sequence (Q8I6Z5 whole entry): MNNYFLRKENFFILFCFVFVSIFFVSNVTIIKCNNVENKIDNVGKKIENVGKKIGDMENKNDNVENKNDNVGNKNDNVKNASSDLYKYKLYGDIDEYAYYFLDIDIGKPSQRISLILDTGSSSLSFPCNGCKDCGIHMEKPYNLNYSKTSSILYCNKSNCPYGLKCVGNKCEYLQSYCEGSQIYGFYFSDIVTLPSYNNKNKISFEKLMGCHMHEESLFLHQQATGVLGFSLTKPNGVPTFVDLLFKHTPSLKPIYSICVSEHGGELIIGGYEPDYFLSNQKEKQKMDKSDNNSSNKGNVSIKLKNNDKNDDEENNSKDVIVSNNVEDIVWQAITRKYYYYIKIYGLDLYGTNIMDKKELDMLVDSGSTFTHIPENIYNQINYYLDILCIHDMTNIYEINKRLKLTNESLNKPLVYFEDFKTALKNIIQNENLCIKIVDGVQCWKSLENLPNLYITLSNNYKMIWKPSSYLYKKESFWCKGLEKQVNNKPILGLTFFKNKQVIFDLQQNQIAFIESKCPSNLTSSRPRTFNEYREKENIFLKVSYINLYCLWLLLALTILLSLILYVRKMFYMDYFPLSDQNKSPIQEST

[2] = target: T1, Plasmodium falciparum plasmepsin V (PfPMV); assay: casein proteolysis assay with recombinant enzyme (A280); format: biochemical

SMILES	IC50 [1] [µM]	IC50 [2] [µM]
O=c1c(O)c(-c2ccc(O)cc2)oc2cc(O)cc(O)c12 [kaempferol]	22.4	–
O=c1c(O)c(-c2ccc(O)c(O)c2)oc2cc(O)cc(O)c12 [quercetin]	53.1	–
CC(C)CC(=O)N[C@H](C(=O)N[C@H](C(=O)N[C@@H](CC(C)C)[C@@H](O)CC(=O)N[C@@H](C)C(=O)N[C@@H](CC(C)C)[C@@H](O)CC(=O)O)C(C)C)C(C)C [pepstatin] (Isovaleryl-VV[Sta]A[Sta]-OH)	–	62.6
CC(C)=CC[C@@H](O)C1=CC(=O)c2c(O)ccc(O)c2C1=O [shikonin]	43.3	–
